# Reference: patent publication US20190167676A1, “METHODS FOR IMPROVING RESISTANCE TO SKELETAL MUSCLE FATIGUE” (Cytokinetics, Inc., priority 2012, published 2019)
# How the values were obtained:
# [1] = system: healthy rats; assay: Rotarod running assay; assay type: in vivo, rat; conditions: control treatments by oral gavage: 300 mg/kg (60 min), caffeine 10 mg/kg (30 min), phosphoserine 1000 mg/kg (24 hours prior)
# Experimental: Female Sprague Dawley rats (210-260 g) were obtained from Charles River Laboratories and acclimated in the test facility for a minimum of six days prior to the start of the study. All rats were trained the day prior to compound administration. Training consisted of placing the rats on the rotating drum (rod), starting at a low constant speed (10 RPM). The rats were acclimated to walk on the drum for 5 minutes before resting. A second training session of an increasing speed from 14-16 RPM was initiated after all rats in the experimental group had finished the first training session. […] On the day of the experiment animals were dosed thirty minutes prior to start of test. The test began with a 5 minute primer session, whereby animals were run at an increasing speed from 14-16 RPM over 5 minutes. Rats were then run at a constantly accelerating rate from 12 RPM to 25 RPM over the course of 10 minutes. […] Time to fall was recorded, with the test being terminated at 900 seconds. Compound A was administered via oral gavage 30 minutes prior to assessment. Each dose was formulated as a suspension containing 0.2% Tween 80, 0.5% HPMC and water. Dose volume was 5 mL/kg. Vehicle (0.2% Tween 80, 0.5% HPMC and water) was administered similarly. Control treatments were chosen based on association with amelioration of central fatigue (caffeine, Davis 2003), muscular fatigue (creatine, Boyadjiev, 2007) and dual central/muscular fatigue (phosphoserine, […] 1976).
# [2] = Plasma levels at end of rotarod experiment; assay type: in vivo, rat; conditions: end of experiment (not at Cmax)
# Experimental: The effect of the fast skeletal muscle troponin activator 1-(2-(((trans)-3-fluoro-1-(3-fluoropyridin-2-yl)cyclobutyl)methylamino)pyrimidin-5-yl)-1H-pyrrole-3-carboxamide (Compound C) on muscle fatigue in healthy rats was determined by a rotarod running time test. […] On the day of the assessment, the animals began by running at an increasing speed from 14-16 RPM over 5 minutes. Rats were then run at a constantly accelerating rate from 12 RPM to 25 RPM over the course of 10 minutes. Time to fall was recorded, with the test being terminated at 600 seconds. The plasma levels were determined at the end of the experiments (not at Cmax). The plasma levels for the indicated doses were determined to be the following: […]
# [3] = system: LAD-HF rats; assay: Fatiguing rotarod in rat heart failure model; assay type: in vivo
# Excerpt: To determine the effect of Compound C on skeletal muscle function in patients with heart failure, a rat heart failure model was used. Female Sprague Dawley rats (<250 g) were obtained from Charles River Laboratories having the left anterior descending coronary artery ligated prior to shipping (LAD-HF rats). Sham operated controls were also obtained from the same surgical preparation (sham controls). All rats underwent assessment of cardiac function after a three day acclimation to provide baseline levels. Animals were assessed on weeks 4, 7 and 10 to observe the progress of exercise intolerance at least 3 days after echocardiography. Exercise performance was assessed using the fatiguing rotarod protocol described in Example 11 (5 minute run ramping from 14-16 RPM, followed by run time assessment during a 10 minute ramp from 12 to 25 RPM). LAD-HF rats were selected based on a left ventricular fractional shortening <25% and reduced run time compared to sham controls. […] Decreases in fractional shortening (determined by echocardiography) were apparent.
# Animals were assigned in a cross-over fashion whereby half of the animals received Compound C (10 mg/kg PO) and half received vehicle (19.3%PEG: 80% (15%) captisol, pH3, 0.2% tween, 0.5% HPMC) via oral gavage 30 minutes prior to rotarod assessment on Day 1 and then the opposite treatment on Day 2.
# [4] = system: extensor digitorum longus (EDL) muscles; assay: In situ EDL force-frequency in sham and LAD-HF rats; assay type: in vivo, rat; conditions: 3 mg/kg IV, sham and LAD-HF groups
# Experimental: An in situ assessment of selected animals from Example 12 was run at the end of the study to assess functional characteristics of extensor digitorum longus (EDL) muscles in Sham and LAD animals. Effects with and without Compound C (3 mg/kg IV) were assessed.
# Rats were placed under anesthesia and the skin around the experimental leg was removed. The distal end of the extensor digitorum longus (EDL) muscle and its associated tendon were then isolated. The rat was then placed on the platform of an Aurora in situ muscle analysis rig wherein the knee was immobilized and the distal tendon cut and tied to the arm of a force transducer. The muscle was stimulated directly via steel needle electrodes contacting the peroneal nerve. Muscle contractile properties were assessed by applying an electrical current to the nerve and recording the force generated by the muscle via a servomotor. The muscle length was adjusted to produce the maximum isometric force (Lo) after sub-maximal stimulation (30 Hz, 1 ms pulses, 350 ms train duration). Once Lo had been established, the nerve was stimulated every 2 minutes with a 30 Hz train (1 ms stimuli, 350 ms duration) for the course of the experiment.
# Once the preparation was stable, a force frequency relationship was assessed, then Compound C (3 mg/kg IV) or vehicle was injected and a second force frequency was assessed. […]
# [5] = system: sham and HF EDL fibers; assay: Skinned EDL fiber force-Ca2+ relationship; design: species or system rat; conditions: 3 μM, sham and HF EDL muscle
# Experimental: (§1) Muscle tissue for in vitro skinned fiber studies were prepared using an adapted protocol based on Lynch and Faulkner (Am J Physiol 275:C1548-54 (1998)). Briefly, rat muscle from sham and HF animals were rapidly dissected, rinsed in physiological saline, and then incubated in skinning solution (125 mM K-propionate, 20 mM imidazole, 5 mM EGTA, 2 mM MgCl2, 2 mM ATP, pH 7.0) supplemented with 0.5% TritonX-100 (Sigma Chemicals, St. Louis, Mo.) for 30 minutes at 4° C. The buffer was then changed to a storage solution (125 mM K-propionate, 20 mM imidazole, 5 mM EGTA, 2 mM MgCl2, 2 mM ATP, glycerol 50%, pH 7.0) and stored at −20° C. for later use.
# (§2) For skinned fiber analysis, single muscle fibers were dissected from larger segments of tissue in rigor buffer at 4° C. ([…], pH 7.0). They were then suspended between a 400 A force transducer (Aurora Scientific, Ontario, Canada) and a fixed post and secured with 2-4 μl of a 5% solution of methylcellulose in acetone. […] Tension was generated in each fiber by changing fiber buffer over to relax buffer supplemented with 1 mM EGTA and a 15 mM solution of calcium chloride and calculated using the web resource (www.stanford.edu/˜cpatton/webmaxc/webmaxcS.htm). […]
# [6] = system: sham and LAD-HF diaphragm fibers; assay: Skinned diaphragm fiber Ca2+ sensitivity; design: species or system rat; conditions: 3 μM
# Experimental: as §1, §2
# [7] = system: sham and LAD-HF diaphragm strips; assay: Diaphragm force-frequency by electrical field stimulation in organ bath; design: species or system rat; conditions: 30 μM, sham and LAD-HF diaphragms, submaximal frequencies of electrical stimulation
# Experimental: Diaphragm contractile force was measured by electrical field stimulation in an organ bath system based on a standard operating protocol adapted from the Treat NMD website (http://www.treat-nmd.eu/downloads/file/sops/dmd/MDX/DMD M.1.2.002.pdf). The diaphragm and the last floating rib from sham and HF animals were excised, rinsed in physiological saline, and placed in a temperature controlled water-jacketed chamber (26-27° C.) containing Krebs-Henseleit Buffer (118 mM NaCl, 10 mM glucose, 4.6 mM KCl, 1.2 mM KH2PO4, 1.2 mM MgSO4*7 H2O, 24.8 mM NaHCO3, 2.5 mM CaCl2, 50 mg/L tubocurarine, 50 U/L insulin, pH:7.4) that was continuously aerated with 95% O2/[…]. After 10 minutes of equilibration, vertical strips spanning the floating rib to the central tendon were cut from diaphragms. Braided silk sutures were tied at the central tendon and floating rib and attached to a force transducer between two platinum electrodes. Diaphragm strips were set to a length that produced maximum twitch tension (Lo). The force-frequency profile of the muscle was obtained by stimulating the muscle at frequencies between 10-150 Hz (Grass Stimulator, 800 ms train duration, 0.6 ms pulse width). Compound C was suspended in DMSO and directly added into the bath.
# [8] = system: mouse EDL muscle; conditions: cited from earlier work
# [9] = system: rat plantarflexor muscles; assay: Rat plantar flexor force and power in situ; assay type: in vivo
# Excerpt: Rats were placed under anesthesia using isoflurane and the sciatic nerve of the experimental leg exposed. The rat was then placed on the platform of an Aurora in-situ muscle analysis rig (806C), maintained at body temperature via a circulating water system. The knee was immobilized in a clamp between two sharpened screws and the foot attached securely to the footplate of a force transducer (Aurora Scientific, Ontario, Canada) using laboratory tape. The muscle was stimulated directly via the sciatic nerve. For isolation of the nerve, a 1 cm incision was made at the upper thigh and the overlying muscle was dissected to expose an approximate 5 mm stretch of the sciatic nerve. This was then dissected free of surrounding connective tissue and a pair of stainless steel needle electrodes (0.10 mm) were hooked around the exposed nerve. The peroneal branch was severed to remove innervation to the plantar-extensor muscle groups. Muscle contractile properties were assessed by applying an electrical current to the nerve and recording the force generated by the muscle via a servomotor. Isokinetic contractile properties were assessed as force generated during a pre-programmed movement of the footplate. Footplate movements were 0.7 radians in size ([…]).
# Solutions of Compound A (50% PEG300/10% EtOH/40% cavitron formulation) were administered via a femoral vein catheter as a single slow bolus over a 2 min period, with a maximal dosage volume of 5 ml/Kg. During the experiment, blood was drawn via the tail vein for compound concentration analysis. At the end of each assay, the length and weight of the muscle was recorded, and measured force normalized to the mass of the muscle (N/g).
# Compound A increased force generation throughout the curve to generate a total of 55% more work over the 300 second period, while maintaining a similar profile to that of the vehicle.
# The same protocol was repeated with a second skeletal muscle troponin activator, 1-((1R)-1-methylpropyl)-6-chloro-7-pyrazolylimidazo[4,5-b]pyridin-2-ol (Compound B). Compound B and analogous skeletal muscle troponin activators are disclosed in U.S. Pat. No. 7,989,469. […] 0.7 radian displacement and stimulation frequency calculated to provide 50% of maximum isokinetic tension. Compound B maintained force generation throughout the curve, at almost 50% of vehicle stimulation frequency, to generate the same total work over the 300 second period, while maintaining a similar profile to that of the vehicle.
molecule,measurement,setting,value
"N[C@@H](COP(=O)(O)O)C(=O)O [phosphoserne, phosphoserine, reference compound]",running time vs vehicle,[1],no significant difference
"NC(=O)c1ccn(-c2cnc(NCC3(c4ncccc4F)CC(F)C3)nc2)c1 (stereo not drawn) [Compound C, 1-(2-(((trans)-3-fluoro-1-(3-fluoropyridin-2-yl)cyclobutyl)methylamino)pyrimidin-5-yl)-1H-pyrrole-3-carboxamide]",[Plasma],[2]; 0.01 mg/kg,0.003 µM
same,[Plasma],[2]; 0.03 mg/kg,0.007 µM
same,[Plasma],[2]; 0.1 mg/kg,0.024 µM
same,[Plasma],[2]; 0.3 mg/kg,0.083 µM
same,[Plasma],[2]; 1 mg/kg,0.204 µM
same,[Plasma],[2]; 3 mg/kg,0.478 µM
same,[Plasma],[2]; 10 mg/kg,1.95 µM
same,[Plasma],[2]; 30 mg/kg,3.64 µM
same,[Plasma],[2]; 100 mg/kg,28.0 µM
same,increase of rotarod running time compared to vehicle treatment,[3]; 10 mg/kg PO,approximately 2.5 fold
same,rotarod running time (mean±S.E.),"[3]; 10 mg/kg PO 30 minutes prior, vehicle 111±32",277 ± 32 s
same,response to low frequency stimulation,[4],increased response to low frequency stimulation in both groups
same,force-Ca2+ relationship,[5],leftward shift in the force-Ca^2+ relationship
same,Ca2+ sensitivity,[6],significantly increased Ca^2+ sensitivity
same,diaphragm force,[7],significantly increased force
"Cn1c(=O)c2c(ncn2C)n(C)c1=O [caffeine, reference compound]",running time vs vehicle,[1],no significant difference
same,tetanic tension and muscle fatigue,[8]; repeated 60 Hz stimulation over 6 minutes,increased initial tetanic EDL tension but accelerated and accentuated muscle fatigue
"CN(CC(=O)O)C(=N)N [creatine, reference compound]",running time vs vehicle,[1],no significant difference
"1-((1R)-1-methylpropyl)-6-chloro-7-pyrazolylimidazo[4,5-b]pyridin-2-ol [Compound B]",isokinetic force frequency relationship,[9]; at 3.1 radians/s,increased in the submaximal range in a dose dependent manner
same,force-velocity relationship,[9]; at 30 Hz,increased across all velocities in a dose and velocity dependent manner
same,power output,[9]; corresponding to force velocities at 30 Hz,dose-dependent increase
same,isometric force frequency relationship,[9]; in situ,increased in the submaximal range in a dose dependent manner
same,stimulation frequency to generate the same total work,"[9]; isokinetic fatigue protocol at 50% of maximum isokinetic tension, 300 second period",~50 % of vehicle stimulation frequency
same,more total work over the 300 second period,"[9]; isokinetic fatigue protocol, 1 flexion per second at 3.1 radians/s, 30 Hz, vs vehicle",105%
O=C1CN(/N=C/c2ccc(-c3ccc([N+](=O)[O-])cc3)o2)C(O)=N1 [dantrolene],tetanic tension and fatigue development,[8]; 20 μM,decreased early tetanic tension yet abolished overall fatigue development
